Experimental data: patent publication US20100249132A1, “IMIDAZOLE DERIVATIVES” (MERCK PATENT GESELLSCHAFT MIT BESCHRANKTER HAFTUNG, priority 2007, published 2010)

What follows are compounds tested against T1, recombinant autotaxin (Homo sapiens, UniProt Q13822) (assay: Autotaxin test (enzyme test), Amplex Red fluorescence). Conditions: substrate LPC 75 μM, Amplex Red detection, read-out: IC50 (autotaxin inhibition, enzyme test).
T1 construct: made in house; host or cells: Hi5 insect cells (baculovirus)
Type: biochemical
In short: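 Recombinant human autotaxin from baculovirus/Hi5 (16 ng) was preincubated with compound 30 min at 22 °C. Reaction with 75 μM egg LPC ran 90 min at 37 °C. Released choline was coupled via alkaline phosphatase, choline oxidase and HRP to Amplex Red, read as resorufin fluorescence (ex485/em612) in kinetic mode.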

Row | IC50 | SMILES
1 | 1 to 10 µM | NC(=O)c1nc(Cc2ccc(C(=O)O)cc2)[nH]c1NC(=O)Nc1ccc(OC(F)(F)F)cc1 [Compound A93, 4-{4-Carbamoyl-5-[3-(4-trifluoromethoxyphenyl)-ureido]-1H-imidazol-2-ylmethyl}benzoic acid]
2 | 1 to 10 µM | CCCCc1ccc(NC(=O)Nc2[nH]c(Cc3ccc(C(=O)N4CCOCC4)cc3)nc2C(N)=O)cc1 [Compound A94, 5-[3-(4-Butylphenyl)ureido]-2-[4-(morpholine-4-carbonyl)benzyl]-1H-imidazole-4-carboxamide]
3 | > 10 µM | NC(=O)c1nc(Cc2ccc([N+](=O)[O-])cc2)[nH]c1NC(=O)Nc1ccc(C(F)(F)F)cc1 [Compound A96, 2-(4-Nitrobenzyl)-5-[3-(4-trifluoromethylphenyl)-ureido]-1H-imidazole-4-carboxamide]
4 | 1 to 10 µM | NC(=O)c1nc(Cc2ccc(N)cc2)[nH]c1NC(=O)Nc1ccc(C(F)(F)F)cc1 [Compound A97, 2-(4-aminobenzyl)-5-[3-(4-trifluoromethylphenyl)-ureido]-1H-imidazole-4-carboxamide]
5 | > 10 µM | COC(=O)c1ccc(Cc2nc(C(N)=O)c(NC(=O)Nc3ccc(C(F)(F)F)cc3)[nH]2)cc1 [Compound A98, Methyl 4-{4-carbamoyl-5-[3-(4-trifluoromethyl-phenyl)ureido]-1H-imidazol-2-ylmethyl}benzoate]
6 | > 10 µM | COC(=O)c1ccc(Cc2nc(C(N)=O)c(NC(=O)Nc3ccc(OC(F)(F)F)cc3)[nH]2)cc1 [Compound A99, Methyl 4-{4-carbamoyl-5-[3-(4-trifluoromethoxy-phenyl)ureido]-1H-imidazol-2-ylmethyl}benzoate]
7 | > 10 µM | Cc1oc(-c2ccccc2)cc1NC(=O)Nc1[nH]c(Cc2ccc(C(=O)O)cc2)nc1C(N)=O [Compound A101, 4-{4-Carbamoyl-5-[3-(2-methyl-5-phenylfuran-3-yl)ureido]-1H-imidazol-2-ylmethyl}benzoic acid]
8 | 1 to 10 µM | NC(=O)c1nc(Cc2ccc(C(=O)O)cc2)[nH]c1NC(=O)Nc1cccs1 [Compound A102, 4-[4-Carbamoyl-5-(3-thiophen-2-ylureido)-1H-imidazol-2-ylmethyl]benzoic acid]
9 | > 10 µM | NC(=O)c1nc(Cc2ccc(C(=O)NCCc3c[nH]cn3)cc2)[nH]c1NC(=O)Nc1ccc(C(F)(F)F)cc1 [Compound A103, 2-{4-[2-(1H-Imidazol-4-yl)ethylcarbamoyl]benzyl}-5-[3-(4-trifluoromethylphenyl)ureido]-1H-imidazole-4-carboxamide]
10 | > 10 µM | CC(C)(CCc1nc(C(N)=O)c(NC(=O)Nc2ccc(Cl)cc2)[nH]1)C(=O)O [Compound B75]
11 | > 10 µM | NC(=O)c1nc(CCCCN2C(=O)c3ccccc3C2=O)[nH]c1NC(=O)Nc1ccc(Cl)cc1 [Compound B77]
12 | > 10 µM | NC(=O)c1nc(CN2C(=O)c3ccccc3C2=O)[nH]c1NC(=O)Nc1ccc(Cl)cc1 [Compound B78]
13 | > 10 µM | NC(=O)c1nc(CCC(=O)Nc2ccc3[nH]nnc3c2)[nH]c1NC(=O)Nc1ccc(Cl)cc1 [Compound B80]
14 | > 10 µM | NC(=O)c1nc(Cc2ccc(OCC(=O)O)cc2)[nH]c1NC(=O)c1cc(-c2ccc(Cl)cc2)n[nH]1 [Compound B82]

Row | SMILES | IC50
15 | CCCCOc1ccc(NC(=O)Nc2[nH]c(Cc3ccc(O)cc3)nc2C(N)=O)cc1 [Compound A95, 5-[3-(4-Butoxyphenyl)ureido]-2-(4-hydroxy-benzyl)-1H-imidazole-4-carboxamides] | > 10 µM
16 | CCCCOc1ccc(NC(=O)Nc2[nH]c(Cc3ccc(CO)cc3)nc2C(N)=O)cc1 [Compound A100, 5-[3-(4-butoxyphenyl)ureido]-2-(4-hydroxy-methylbenzyl)-1H-imidazole-4-carboxamide] | > 10 µM
17 | NC(=O)c1nc(CCC(=O)Nc2ccc3[nH]c(=O)oc3c2)[nH]c1NC(=O)Nc1ccc(Cl)cc1 [Compound B79] | > 10 µM
